How the values were obtained:
[1] = tested on: rat C6 glioma tumor xenografts; experiment: Rat C6 glioma tumor xenografts in female BALB/C mice; format: in vivo; details: for Delta tumor volumes (mean mm^3±SEM): q7d (i.v., days 3 and 10) alone, control 1289±178
Method: STI571 Alone, Epothilone B (EPO906) Alone and the Combination of STI571 Plus Epothilone B Versus Rat C6 Glioma Tumor Xenografts in Female BALB/C Mice
Tumors are initiated by the s.c. injection of 1×10^6 rat C6 cells (n=8/group). When the tumors reaches ˜75 mm^3, STI571 treatment is begun at 200 mg/kg, p.o., q24h.

[2] = tested on: KAT-4 mouse thyroid carcinoma; experiment: KAT-4 thyroid carcinoma tumors in SCID mice; format: in vivo; details: for effect on tumor growth: STI571 100 mg/kg gavage once daily from day 3, EPO906 0.3 mg/kg s.c. days 6, 13, 20
Method: Study on the Effects of Combining Epothilone B Treatment of KAT-4 Mouse Thyroid Carcinoma with Treatment with STI571
Epothilone B is administered s.c. once weekly. STI571, at a dose of 100 mg/kg, is administered by gavage and given once daily. Tumor volume is determined by mesurements with calipers.
In the study four groups of tumor bearing mice are analyzed: control treated mice, mice treated with either STI571 (100 mg/kg) or 0.3 mg/kg of EPO906 alone and mice treated with both drugs. Treatment is performed on mice with an average starting size of tumor of approximatly 100 mm^3. EPO906 is given at days 6, 13 and 20 and STI571 is given once daily from day 3.

C/C(=C\c1csc(C)n1)[C@@H]1C[C@@H]2O[C@]2(C)CCC[C@H](C)[C@H](O)[C@@H](C)C(=O)C(C)(C)[C@@H](O)CC(=O)O1 [EPO906, epothilone B]
Delta tumor volumes (mean mm^3±SEM) ([1]; EPO906 1 mg/kg): 864±115 mm^3 | Delta tumor volumes (mean mm^3±SEM) ([1]; EPO906 2 mg/kg): 419±116 mm^3 | Delta tumor volume ratio treated/controls ([1]; STI571 200 mg/kg p.o. q24h, EPO906 2 mg/kg q7d): 0.325 | effect on tumor growth [2]: statistically significant reduction of tumor growth | final tumor size as % of control tumors ([2]; end of experiment, STI571 100 mg/kg once daily, EPO906 0.3 mg/kg once weekly): 69%

Cc1ccc(NC(=O)c2ccc(CN3CCN(C)CC3)cc2)cc1Nc1nccc(-c2cccnc2)n1 [STI571, N-{5-[4-(4-methyl-piperazino-methyl)-benzoylamido]-2-methylphenyl}-4-(3-pyridyl)-2-pyrimidine-amine]
effect on tumor growth [2]: no effect

Reference: patent US7723339B2, “Combination comprising a signal transduction inhibitor and an epothilone derivative” (Novartis AG, priority 2001, dated 2010)
